Measurements reported in PubChem BioAssay (NCI).
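Results reflect a 48-hour exposure of cells in 96-well plates to compound at five concentrations. TGI: concentration producing complete growth inhibition.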

Columns and labels:
Assay in all cases: inhibition of tumour cell growth, NCI panel, 48 h
SF-295 CNS = test system: SF-295 CNS
NCI-H460 lung = test system: NCI-H460 lung
HOP-92 NSCLC = test system: HOP-92 NSCLC
SNB-19 CNS = test system: SNB-19 CNS
COLO 205 colon = test system: COLO 205 colon
MALME-3M melanoma = test system: MALME-3M melanoma
SK-MEL-28 melanoma = test system: SK-MEL-28 melanoma
KM12 colon = test system: KM12 colon
HCT-15 colon = test system: HCT-15 colon
U251 CNS = test system: U251 CNS
CAKI-1 renal = test system: CAKI-1 renal
OVCAR-3 ovarian = test system: OVCAR-3 ovarian
K-562 leukemia = test system: K-562 leukemia
NCI-H23 lung = test system: NCI-H23 lung
OVCAR-8 ovarian = test system: OVCAR-8 ovarian
HL-60(TB) leukemia = test system: HL-60(TB) leukemia
SR leukemia = test system: SR leukemia
MDA-MB-435 = test system: MDA-MB-435
OVCAR-5 ovarian = test system: OVCAR-5 ovarian
PC-3 prostate = test system: PC-3 prostate
OVCAR-4 ovarian = test system: OVCAR-4 ovarian
M14 melanoma = test system: M14 melanoma
TK-10 renal = test system: TK-10 renal
UACC-257 melanoma = test system: UACC-257 melanoma
EKVX NSCLC = test system: EKVX NSCLC
BT-549 breast = test system: BT-549 breast
SK-OV-3 ovarian = test system: SK-OV-3 ovarian
HS 578T breast = test system: HS 578T breast
SF-539 CNS = test system: SF-539 CNS
A549 NSCLC = test system: A549 NSCLC
UACC-62 melanoma = test system: UACC-62 melanoma
RPMI-8226 leukemia = test system: RPMI-8226 leukemia
MCF7 breast = test system: MCF7 breast
A498 renal = test system: A498 renal
UO-31 renal = test system: UO-31 renal
HT29 colon = test system: HT29 colon
LOX IMVI melanoma = test system: LOX IMVI melanoma
SNB-75 CNS = test system: SNB-75 CNS
T-47D breast = test system: T-47D breast
MDA-N = test system: MDA-N
HCC-2998 colon = test system: HCC-2998 colon
NCI/ADR-RES ovarian = test system: NCI/ADR-RES ovarian
CCRF-CEM leukemia = test system: CCRF-CEM leukemia
HCT-116 colon = test system: HCT-116 colon
SW-620 colon = test system: SW-620 colon
SN12C renal = test system: SN12C renal
DU-145 prostate = test system: DU-145 prostate
SK-MEL-2 melanoma = test system: SK-MEL-2 melanoma
SK-MEL-5 melanoma = test system: SK-MEL-5 melanoma
NCI-H522 lung = test system: NCI-H522 lung
SF-268 CNS = test system: SF-268 CNS
RXF 393 renal = test system: RXF 393 renal
IGROV1 ovarian = test system: IGROV1 ovarian
MDA-MB-231 breast = test system: MDA-MB-231 breast
HOP-62 NSCLC = test system: HOP-62 NSCLC
786-0 renal = test system: 786-0 renal
MOLT-4 leukemia = test system: MOLT-4 leukemia
ACHN renal = test system: ACHN renal
NCI-H226 lung = test system: NCI-H226 lung

**Q.** How did the TGI (SF-295 CNS) turn out when COc1cc2oc3c(c(=O)c2c(O)c1/C=C/C(C)C)CCC(C)(C)Oc1cc(O)ccc1-3 was run?
**A.** 27.7 µM

**Q.** What about the TGI (NCI-H460 lung) of the same compound?
**A.** 21.3 µM

**Q.** And the TGI (HOP-92 NSCLC)?
**A.** 34.3 µM

**Q.** And the TGI (SNB-19 CNS)?
**A.** 30.7 µM

**Q.** And the TGI (COLO 205 colon)?
**A.** 66.9 µM

**Q.** And the TGI (MALME-3M melanoma)?
**A.** 41.4 µM

**Q.** And the TGI (SK-MEL-28 melanoma)?
**A.** 40.2 µM

**Q.** What about the TGI (KM12 colon) of the same compound?
**A.** 21.8 µM

**Q.** And the TGI (HCT-15 colon)?
**A.** 21.8 µM

**Q.** What about the TGI (U251 CNS) of the same compound?
**A.** 66.1 µM

**Q.** And the TGI (CAKI-1 renal)?
**A.** 30.6 µM

**Q.** And the TGI (OVCAR-3 ovarian)?
**A.** 29 µM

**Q.** And the TGI (K-562 leukemia)?
**A.** 13.6 µM

**Q.** And the TGI (NCI-H23 lung)?
**A.** 30.1 µM

**Q.** And the TGI (OVCAR-8 ovarian)?
**A.** 31.4 µM

**Q.** And the TGI (HL-60(TB) leukemia)?
**A.** 45.4 µM

**Q.** And the TGI (SR leukemia)?
**A.** 20 µM

**Q.** What about the TGI (MDA-MB-435) of the same compound?
**A.** 39.8 µM

**Q.** And the TGI (OVCAR-5 ovarian)?
**A.** 30.7 µM

**Q.** And the TGI (PC-3 prostate)?
**A.** 28.4 µM

**Q.** What about the TGI (OVCAR-4 ovarian) of the same compound?
**A.** 28.6 µM

**Q.** And the TGI (M14 melanoma)?
**A.** 23 µM

**Q.** What about the TGI (TK-10 renal) of the same compound?
**A.** 28.7 µM

**Q.** And the TGI (UACC-257 melanoma)?
**A.** 29.2 µM

**Q.** And the TGI (EKVX NSCLC)?
**A.** 47.6 µM

**Q.** And the TGI (BT-549 breast)?
**A.** 31.6 µM

**Q.** And the TGI (SK-OV-3 ovarian)?
**A.** 34.8 µM

**Q.** And the TGI (HS 578T breast)?
**A.** 31.2 µM

**Q.** What about the TGI (SF-539 CNS) of the same compound?
**A.** 26.2 µM

**Q.** What about the TGI (A549 NSCLC) of the same compound?
**A.** 27.1 µM

**Q.** And the TGI (UACC-62 melanoma)?
**A.** 30.3 µM

**Q.** And the TGI (RPMI-8226 leukemia)?
**A.** 45.5 µM

**Q.** What about the TGI (MCF7 breast) of the same compound?
**A.** 26.7 µM

**Q.** And the TGI (A498 renal)?
**A.** 42.6 µM

**Q.** What about the TGI (UO-31 renal) of the same compound?
**A.** 25.8 µM

**Q.** And the TGI (HT29 colon)?
**A.** 19.2 µM

**Q.** What about the TGI (LOX IMVI melanoma) of the same compound?
**A.** > 100 µM

**Q.** What about the TGI (SNB-75 CNS) of the same compound?
**A.** 33.1 µM

**Q.** What about the TGI (T-47D breast) of the same compound?
**A.** > 100 µM

**Q.** What about the TGI (MDA-N) of the same compound?
**A.** 25.6 µM

**Q.** What about the TGI (HCC-2998 colon) of the same compound?
**A.** 27.5 µM

**Q.** And the TGI (NCI/ADR-RES ovarian)?
**A.** 39.3 µM

**Q.** And the TGI (CCRF-CEM leukemia)?
**A.** 57.6 µM

**Q.** What about the TGI (HCT-116 colon) of the same compound?
**A.** 65.9 µM

**Q.** And the TGI (SW-620 colon)?
**A.** 51.8 µM

**Q.** And the TGI (SN12C renal)?
**A.** 27.4 µM

**Q.** What about the TGI (DU-145 prostate) of the same compound?
**A.** 97.9 µM

**Q.** And the TGI (SK-MEL-2 melanoma)?
**A.** 30.2 µM

**Q.** And the TGI (SK-MEL-5 melanoma)?
**A.** 39.9 µM

**Q.** And the TGI (NCI-H522 lung)?
**A.** 38.1 µM

**Q.** What about the TGI (SF-268 CNS) of the same compound?
**A.** 32.2 µM

**Q.** What about the TGI (RXF 393 renal) of the same compound?
**A.** 24.4 µM

**Q.** What about the TGI (IGROV1 ovarian) of the same compound?
**A.** 40.6 µM

**Q.** And the TGI (MDA-MB-231 breast)?
**A.** 32.4 µM

**Q.** What about the TGI (HOP-62 NSCLC) of the same compound?
**A.** 28.9 µM

**Q.** What about the TGI (786-0 renal) of the same compound?
**A.** 47.1 µM

**Q.** And the TGI (MOLT-4 leukemia)?
**A.** 35 µM

**Q.** And the TGI (ACHN renal)?
**A.** 27.1 µM

**Q.** O=C(c1ccccc1)C(C(=O)c1ccccc1)c1nc2ccccc2sc1=O was tested. Which TGI (SF-295 CNS) did it give?
**A.** > 25 µM

**Q.** What about the TGI (NCI-H460 lung) of the same compound?
**A.** > 25 µM

**Q.** What about the TGI (HOP-92 NSCLC) of the same compound?
**A.** 13 µM

**Q.** And the TGI (SNB-19 CNS)?
**A.** > 25 µM

**Q.** What about the TGI (COLO 205 colon) of the same compound?
**A.** > 25 µM

**Q.** And the TGI (MALME-3M melanoma)?
**A.** > 25 µM

**Q.** What about the TGI (SK-MEL-28 melanoma) of the same compound?
**A.** > 25 µM

**Q.** What about the TGI (KM12 colon) of the same compound?
**A.** > 25 µM

**Q.** What about the TGI (HCT-15 colon) of the same compound?
**A.** > 25 µM

**Q.** What about the TGI (U251 CNS) of the same compound?
**A.** > 25 µM

**Q.** And the TGI (CAKI-1 renal)?
**A.** > 25 µM

**Q.** What about the TGI (OVCAR-3 ovarian) of the same compound?
**A.** > 25 µM

**Q.** What about the TGI (K-562 leukemia) of the same compound?
**A.** > 25 µM

**Q.** And the TGI (NCI-H23 lung)?
**A.** > 25 µM

**Q.** And the TGI (OVCAR-8 ovarian)?
**A.** > 25 µM

**Q.** What about the TGI (HL-60(TB) leukemia) of the same compound?
**A.** > 25 µM

**Q.** And the TGI (MDA-MB-435)?
**A.** > 25 µM

**Q.** What about the TGI (OVCAR-5 ovarian) of the same compound?
**A.** > 25 µM

**Q.** And the TGI (PC-3 prostate)?
**A.** > 25 µM

**Q.** What about the TGI (OVCAR-4 ovarian) of the same compound?
**A.** > 25 µM

**Q.** And the TGI (M14 melanoma)?
**A.** > 25 µM

**Q.** What about the TGI (TK-10 renal) of the same compound?
**A.** > 25 µM

**Q.** What about the TGI (UACC-257 melanoma) of the same compound?
**A.** > 25 µM

**Q.** And the TGI (EKVX NSCLC)?
**A.** > 25 µM

**Q.** What about the TGI (BT-549 breast) of the same compound?
**A.** > 25 µM

**Q.** And the TGI (SK-OV-3 ovarian)?
**A.** > 25 µM

**Q.** What about the TGI (HS 578T breast) of the same compound?
**A.** > 25 µM

**Q.** And the TGI (SF-539 CNS)?
**A.** > 25 µM

**Q.** What about the TGI (A549 NSCLC) of the same compound?
**A.** > 25 µM

**Q.** What about the TGI (UACC-62 melanoma) of the same compound?
**A.** 24 µM

**Q.** What about the TGI (RPMI-8226 leukemia) of the same compound?
**A.** > 25 µM

**Q.** What about the TGI (MCF7 breast) of the same compound?
**A.** > 25 µM

**Q.** What about the TGI (A498 renal) of the same compound?
**A.** > 25 µM

**Q.** What about the TGI (UO-31 renal) of the same compound?
**A.** > 25 µM

**Q.** What about the TGI (NCI-H226 lung) of the same compound?
**A.** 23 µM

**Q.** And the TGI (HT29 colon)?
**A.** > 25 µM

**Q.** What about the TGI (LOX IMVI melanoma) of the same compound?
**A.** > 25 µM

**Q.** And the TGI (T-47D breast)?
**A.** > 25 µM

**Q.** What about the TGI (MDA-N) of the same compound?
**A.** > 25 µM

**Q.** What about the TGI (HCC-2998 colon) of the same compound?
**A.** > 25 µM

**Q.** And the TGI (NCI/ADR-RES ovarian)?
**A.** > 25 µM

**Q.** And the TGI (CCRF-CEM leukemia)?
**A.** > 25 µM

**Q.** And the TGI (HCT-116 colon)?
**A.** > 25 µM

**Q.** And the TGI (SW-620 colon)?
**A.** > 25 µM

**Q.** What about the TGI (SN12C renal) of the same compound?
**A.** > 25 µM

**Q.** What about the TGI (DU-145 prostate) of the same compound?
**A.** > 25 µM

**Q.** What about the TGI (SK-MEL-2 melanoma) of the same compound?
**A.** > 25 µM

**Q.** What about the TGI (SK-MEL-5 melanoma) of the same compound?
**A.** > 25 µM

**Q.** What about the TGI (NCI-H522 lung) of the same compound?
**A.** > 25 µM

**Q.** And the TGI (SF-268 CNS)?
**A.** > 25 µM

**Q.** What about the TGI (RXF 393 renal) of the same compound?
**A.** > 25 µM

**Q.** What about the TGI (IGROV1 ovarian) of the same compound?
**A.** > 25 µM

**Q.** And the TGI (MDA-MB-231 breast)?
**A.** > 25 µM

**Q.** What about the TGI (HOP-62 NSCLC) of the same compound?
**A.** > 25 µM

**Q.** What about the TGI (786-0 renal) of the same compound?
**A.** > 25 µM

**Q.** And the TGI (MOLT-4 leukemia)?
**A.** > 25 µM

**Q.** What about the TGI (ACHN renal) of the same compound?
**A.** > 25 µM
